The text below walks through data of patent US20260234157A1, “COMPOUND AND METHOD FOR TARGETED DEGRADATION OF ANDROGEN RECEPTOR” (Gan & Lee Pharmaceuticals Co., Ltd., priority 2023, published 2026).

Numbering of substitutions follows the chain as printed. Like-named read-outs stand apart in the source and are kept apart here.

Common to all, as to type: cell-based
One assay relates to VCaP cells. In words: Inhibition of proliferation of VCaP cells (WST-8). Particulars: Homo sapiens, read-out: IC50 for inhibiting the proliferation of VCaP cells. On the procedure: The inhibitory activity of the compounds disclosed in the present disclosure on the proliferation of VCaP cells
On the first day of the experiment, […] were inoculated in 96 well plates at a density of 15000 cells per well using DMEM medium containing 10% fetal bovine serum, with 100 μL of cell suspension per well. The cells were cultured in a cell culture incubator with 5% CO2 at 37° C. overnight. […] On the ninth day, 96 well plates were taken out, and 20 μL of WST-8 (Beytime, C0040) reagent was added to each well.

The next assay has as its system LNCaP FGC cells. In words: Inhibition of proliferation of LNCaP cells (WST-8). Particulars: Homo sapiens, LNCaP, 96 h. On the procedure:
The cells were cultured in a cell culture incubator with 5% CO2 at 37° C. overnight. […] On the sixth day, 96 well plates were taken out, and 20 μL of WST-8 (Beytime, C0040) reagent was added to each well.

Assay [1] concerns the target T1, AR protein (Homo sapiens, UniProt P10275).
T1 construct: degradation activity of the compounds disclosed in the present disclosure on AR protein in VCaP cells; host or cells: VCaP
T1 sequence (P10275 1-920): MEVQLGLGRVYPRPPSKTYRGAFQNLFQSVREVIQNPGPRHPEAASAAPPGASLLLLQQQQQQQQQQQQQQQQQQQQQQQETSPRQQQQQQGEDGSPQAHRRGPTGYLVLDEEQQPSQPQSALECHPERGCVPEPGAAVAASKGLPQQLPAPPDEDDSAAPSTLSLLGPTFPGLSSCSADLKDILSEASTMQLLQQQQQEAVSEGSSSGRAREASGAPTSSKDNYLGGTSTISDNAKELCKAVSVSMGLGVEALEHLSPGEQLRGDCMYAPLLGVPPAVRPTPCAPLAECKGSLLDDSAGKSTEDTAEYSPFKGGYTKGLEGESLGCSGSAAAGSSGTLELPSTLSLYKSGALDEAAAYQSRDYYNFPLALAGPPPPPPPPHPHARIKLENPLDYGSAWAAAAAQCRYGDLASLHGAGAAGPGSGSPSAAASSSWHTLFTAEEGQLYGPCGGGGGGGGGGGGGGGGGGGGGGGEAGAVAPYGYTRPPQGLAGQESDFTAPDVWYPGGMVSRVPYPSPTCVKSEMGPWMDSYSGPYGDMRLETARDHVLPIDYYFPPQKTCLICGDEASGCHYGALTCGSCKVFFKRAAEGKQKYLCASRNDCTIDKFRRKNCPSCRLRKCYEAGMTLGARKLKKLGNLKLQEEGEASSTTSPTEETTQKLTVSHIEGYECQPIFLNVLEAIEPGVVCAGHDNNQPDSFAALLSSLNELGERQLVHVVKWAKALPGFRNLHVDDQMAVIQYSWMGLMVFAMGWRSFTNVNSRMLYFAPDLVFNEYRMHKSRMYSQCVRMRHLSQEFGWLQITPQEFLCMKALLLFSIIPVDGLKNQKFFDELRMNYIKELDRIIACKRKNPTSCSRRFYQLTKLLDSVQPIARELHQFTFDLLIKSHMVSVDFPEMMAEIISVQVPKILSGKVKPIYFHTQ
The experiment in a line: Degradation of AR protein in VCaP cells (Western blot). Particulars: 8 hours; for inhibition at 0.01 µM: compound at 10 nM, read-out: Degradation rate of the AR protein in VCaP cells, 10 nM (%); for inhibition at 0.1 µM: compound at 100 nM, read-out: Degradation rate of the AR protein in VCaP cells, 100 nM (%). A digest of the protocol: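 Western blot readout: AR band grayscale normalised to GAPDH, used to derive degradation rate. Lysates came from VCaP cells exposed to compound for 8 h, with solvent controls run in parallel.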

Assay [2] concerns the target T2, AR protein (Homo sapiens, UniProt P10275, T878A).
T2 construct: degradation activity of the compounds disclosed in the present disclosure on AR protein in LNCaP cells; host or cells: LNCaP FGC
T2 sequence (P10275 1-920 T878A): T1 sequence (P10275 1-920) with T878A
In words: Degradation of AR protein in LNCaP cells (Western blot). Particulars: for inhibition at 0.01 µM: read-out: Degradation rates of the AR protein in LNCaP cells, 10 nM (%); for inhibition at 0.1 µM: read-out: Degradation rates of the AR protein in LNCaP cells, 100 nM (%). A digest of the protocol: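 Percent AR degradation was derived from GAPDH-normalised Western blot band intensities (infrared detection) in LNCaP lysates.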

[3] abbreviates: VCaP cells, 168 hours, WST-8 absorbance at 450 nm.
The mark [4] stands for this setting: LNCaP FGC cells, 96 hours, WST-8 absorbance at 450 nm, read-out: IC50 for inhibiting the proliferation of LNCaP cells.
The mark [5] stands for this setting: read-out: IC50 for inhibiting the proliferation of LNCaP cells, LNCaP FGC cells, 96 hours, WST-8 absorbance at 450 nm.

Consider `N#Cc1ccc(O[C@H]2CC[C@H](NC(=O)c3ccc(N4CCC5(CC4)CC(N4CCC6(CC4)COc4c6ccc6c4C(=O)N(C4CCC(=O)NC4=O)C6=O)C5)nn3)CC2)cc1Cl` (stereo partly shown) [Compound 143], for which the IC50 in the assay on VCaP cells (setting [3]) amounted to 0.02 µM; with LNCaP FGC cells (setting [4]) it was 0.35 µM.
Consider `CC1(CN2CC3(CCc4cc5c(cc4O3)CN(C3CCC(=O)NC3=O)C5=O)C2)CCN(c2ccc(C(=O)N[C@H]3CC[C@H](Oc4ccc(C#N)c(Cl)c4)CC3)nn2)CC1` (stereo partly shown) [Compound 80], for which the IC50 turned out to be 2.83 µM in the assay with VCaP cells (setting [3]) and 0.73 µM with LNCaP FGC cells (setting [4]).
In the same order, the values of `COC1(CN2CCC3(CC2)COc2c(ccc4c2C(=O)N(C2CCC(=O)NC2=O)C4)C3)CCN(c2ccc(C(=O)NC3CCC(Oc4ccc(C#N)c(Cl)c4)CC3)nn2)CC1` (stereo not shown) [Compound 186] are 0.02 µM and 0.85 µM.
As to `CC1(C)C(=O)N(c2ccc(C#N)c(C(F)(F)F)c2)C(=S)N1c1ccc(C(=O)N2CCC3(CCC(N4CCC5(CC4)COc4cc6c(cc4C5)C(=O)N(C4CCC(=O)NC4=O)C6=O)CC3)CC2)c(F)c1` (stereo not shown) [Compound 113], the IC50 came out at 2.81 µM in the assay on VCaP cells (VCaP, 168 h) and 5.56 µM in the assay on LNCaP FGC cells (setting [5]).
In the same order, the values of `CC1(C)C(=O)N(c2ccc(C#N)c(C(F)(F)F)c2)C(=S)N1c1ccc(C(=O)N2CCC(CN3CCC4(CCc5cc6c(cc5O4)CN(C4CCC(=O)NC4=O)C6=O)CC3)CC2)c(F)c1` (stereo not shown) [Compound 85] are 7.4 µM and 5.34 µM.
`CC1(C)C(=O)N(c2ccc(C#N)c(C(F)(F)F)c2)C(=S)N1c1ccc(C(=O)N2CCC3(CC2)CC(N2CCC4(CC2)COc2cc5c(cc2C4)C(=O)N(C2CCC(=O)NC2=O)C5=O)C3)c(F)c1` (stereo not shown) [Compound 123]: the IC50 with VCaP cells (VCaP, 168 h) was determined as 3.38 µM; with LNCaP FGC cells (setting [5]), 2.71 µM.
Take `CC1(C)C(=O)N(c2ccc(C#N)c(C(F)(F)F)c2)C(=S)N1c1ccc(C(=O)N2CC3(CCC(N4CCC5(CC4)COc4cc6c(cc4C5)C(=O)N(C4CCC(=O)NC4=O)C6=O)CC3)C2)c(F)c1` (stereo not shown) [Compound 86]: the IC50 in the assay with VCaP cells (VCaP, 168 h) amounted to 2.49 µM; with LNCaP FGC cells (setting [5]) it was 4.53 µM.
Taken in the same sequence, the figures for `CC1(C)C(=O)N(c2ccc(C#N)c(C(F)(F)F)c2)C(=S)N1c1ccc(C(=O)N2CCC(F)(CN3CC4(CCc5cc6c(cc5O4)C(=O)N(C4CCC(=O)NC4=O)C6)C3)CC2)c(F)c1` (stereo not shown) [Compound 81] were 0.03 µM and 3.86 µM.
Take `CC1(C)C(=O)N(c2ccc(C#N)c(C(F)(F)F)c2)C(=S)N1c1ccc(C(=O)N2CCC(CN3CC4(CCc5cc6c(cc5O4)CN(C4CCC(=O)NC4=O)C6=O)C3)CC2)c(F)c1` (stereo not shown) [Compound 124]: the IC50 in the assay with VCaP cells (setting [3]) was determined as 2.96 µM; in the assay on LNCaP FGC cells (setting [4]), 7.91 µM.
On to `CC1(C)C(=O)N(c2ccc(C#N)c(C(F)(F)F)c2)C(=S)N1c1ccc(C(=O)N2CC(N3CCC4(CC3)COc3cc5c(cc3C4)C(=O)N(C3CCC(=O)NC3=O)C5=O)C2)c(F)c1` (stereo not shown) [Compound 112], for which the IC50 in the assay with VCaP cells (VCaP, 168 h) was found to be 5.12 µM; in the assay with LNCaP FGC cells (setting [5]), 8.18 µM.
For the compound `N#Cc1ccc(O[C@H]2CC[C@H](NC(=O)c3ccc(N4CC[C@@H](CN5CCC6(CCc7cc8c(cc7O6)C(=O)N(C6CCC(=O)NC6=O)C8=O)CC5)C4)nn3)CC2)cc1Cl` (stereo partly shown) [Compound 21], the IC50 with VCaP cells (setting [3]) amounted to 0.38 µM; in the assay with LNCaP FGC cells (setting [4]), 0.56 µM.
With `COc1cc(O[C@H]2CC[C@H](NC(=O)c3cnc(N4CCC(CN5CC6(CCc7cc8c(cc7O6)C(=O)N(C6CCC(=O)NC6=O)C8=O)C5)(OC)CC4)nc3)CC2)ccc1C#N` (stereo partly shown) [Compound 232], the IC50 in the assay on VCaP cells (setting [3]) came out at 4.41 µM. Besides, the inhibition at 0.01 µM on AR protein [1] is 37%; at AR protein [2] (LNCaP cells, compound 10 nM, 8 hours, Western blot grayscale, GAPDH internal reference), 33%. The inhibition at 0.1 µM on AR protein [1] worked out at 43%; on AR protein [2] (LNCaP cells, compound 100 nM, 8 hours, Western blot grayscale, GAPDH internal reference), 36%.
As to `N#Cc1ccc(O[C@H]2CC[C@H](NC(=O)c3ccc(N4CC(N5CCC6(CCc7cc8c(cc7O6)C(=O)N(C6CCC(=O)NC6=O)C8)CC5)C4)nn3)CC2)cc1Cl` (stereo partly shown) [Compound 46], the IC50 in the assay with VCaP cells (VCaP, 168 h) amounted to 0.11 µM. Further, the inhibition at 0.01 µM is 39% at AR protein [1] and 35% on AR protein [2] (LNCaP, 8 h). The inhibition at 0.1 µM at AR protein [1] is 59%; on AR protein [2] (LNCaP, 8 h), 47%.
Take `CC1(C)C(=O)N(c2ccc(C#N)c(C(F)(F)F)c2)C(=S)N1c1ccc(C(=O)N2CCC(CN3CCC4(CCc5cc6c(cc5O4)C(=O)N(C4CCC(=O)NC4=O)C6=O)CC3)CC2)c(F)c1` (stereo not shown) [Compound 99]: the IC50 in the assay with VCaP cells (VCaP, 168 h) amounted to 3.8 µM.
Turning to `CC1(C)C(=O)N(c2ccc(C#N)c(C(F)(F)F)c2)C(=S)N1c1ccc(C(=O)N2CC3(CC(N4CCC5(CC4)COc4cc6c(cc45)C(=O)N(C4CCC(=O)NC4=O)C6=O)C3)C2)c(F)c1` (stereo not shown) [Compound 92], the IC50 in the assay with VCaP cells (VCaP, 168 h) stood at 4.09 µM.
On the same count and under the same terms, the same measure for `CC1(C)C(=O)N(c2ccc(C#N)c(C(F)(F)F)c2)C(=S)N1c1ccc(C(=O)N2CCC(F)(CN3CCC4(CCc5cc6c(cc5O4)C(=O)N(C4CCC(=O)NC4=O)C6=O)CC3)CC2)c(F)c1` (stereo not shown) [Compound 97]: 1.3 µM; for `CC1(C)C(=O)N(c2ccc(C#N)c(C(F)(F)F)c2)C(=S)N1c1ccc(C(=O)N2CCC(N3CCC4(CCc5cc6c(cc5O4)C(=O)N(C4CCC(=O)NC4=O)C6=O)CC3)CC2)c(F)c1` (stereo not shown) [Compound 101]: 3.75 µM.
As to `CC1(C)C(=O)N(c2ccc(C#N)c(C(F)(F)F)c2)C(=S)N1c1ccc(C(=O)N2CC(N3CCC4(CCc5cc6c(cc5O4)C(=O)N(C4CCC(=O)NC4=O)C6=O)CC3)C2)c(F)c1` (stereo not shown) [Compound 102], the IC50 in the assay with VCaP cells (VCaP, 168 h) came to 3.88 µM.
